Where a SMILES comes first, the peptide text is derived from it. [ ]: non-standard residue; d: D form. The star is where a group is joined. Dolaproine = CO[C@@H]([C@@H]1CCCN1)[C@@H](C)C(=O)O; Dil = CC[C@H](C)[C@H](NC)[C@@H](CC(=O)O)OC; X1 = C[C@@H](N*)[C@@H](O)c1ccccc1; NMeV = CN[C@H](C(=O)O)C(C)C
Assays:
[1] = test system: orthotopically grafted human breast tumor of MDA-MB-231 type (MDA-MB-231-Luc cells); experiment: Therapeutic efficacy in vivo on a murine model of human breast cancer; set-up: species or system Balb/c Nude mice
Description: The therapeutic efficacy of the conjugate of formula (III), as synthesized according to the reaction protocol described in example 1, was evaluated on 6-week-old female Balb/c Nude mice (Charles River France Laboratories—L'Arbresle) as indicated in example 3.
The MDA-MB-231 cells originate from a mammary adenocarcinoma from a person. The MDA-MB-231 mammary cancer cell line was supplied by Caliper LifeSciences (Roissy, France). These cells were chosen because they make it possible to generate tumors of hypoxic nature, reflecting the clinical pathological situation.
These cells are modified to express the luciferase gene. The cells were cultured in […] flasks and maintained in a humidified incubator at 37° C. under an atmosphere consisting of air, with Eagle's Minimal Essential Medium (EMEM) supplemented with 10% of fetal calf serum, 1% of L-glutamine, 1% of sodium pyruvate, 1% of non-essential amino acids, 2% of sodium bicarbonate and 1% of penicillin and streptomycin.
For the implantations, the abdomens of the mice were disinfected with an iodinated povidone solution (Betadine®, ASTA Medica, Belgium). The needle was inserted into the subcutaneous space, at the level of the lower left teat. 2×10^6 MDA-MB-231-Luc cells in 100 μl of PBS was slowly injected using a 27-caliber needle. The needle was then slowly withdrawn. For this, the mice will be anesthetized by inhalation of isoflurane (2% in air).
The mice (6 animals per group) received a treatment 15 days after the tumor implantations. The intravenous injections were carried out once a week for 5 weeks with doses of 4 mg/kg of conjugate of formula (III) (D15, D22, D29, D36 and D43). The control groups were treated either with MMAE alone with a dose of 0.3 mg/kg, or with the excipient consisting of a mixture of DMSO and PBS (5%/95%).
The evolution of the tumor volume was monitored by 3D echography. The measurements were carried out as described in example 2, on days 7, 11, 15, 19, 22, 25, 27, 29, 32, 34, 36, 39, 43 and 50.

[2] = test system: orthotopically grafted human pancreatic tumor of Mia Paca type (Mia PaCa 2-Luc cells); experiment: Therapeutic efficacy in vivo on a murine model of human pancreatic cancer (two weekly injections, D7 and D14); set-up: species or system Swiss Nude mice; details: 2 injections (D7 and D14), echography over 70 days, FIG. 2
Description: The therapeutic efficacy of the conjugate of formula (III), as synthesized according to the reaction protocol described in example 1, was evaluated on 6-week-old female Swiss Nude mice (Charles River France Laboratories, l'Arbresle). The animals were acclimatized for 7 days in the laboratory before the experiment. The mice were housed in plastic cages equipped with filtering lids (HEPA filter), in a ventilated cage rack, housed at a temperature of 20±2° C. with a light/dark cycle of 12/12 hours, with free access to water and food ad libitum.
The Mia Paca 2 cells originate from a pancreatic adenocarcinoma from a person. The Mia Paca 2 pancreatic cancer cell line was supplied by the American Type Culture Collection (Rockville, Md.). These cells were chosen since they make it possible to generate tumors of hypoxic nature, reflecting the clinical pathological situation.
These cells were modified to express the luciferase gene (Mia PaCa 2-Luc). The cells were cultured in […] flasks and maintained in a humidified incubator at 37° C. in 5% CO2 with Dulbecco's Modified Eagle Medium (DMEM) supplemented with 10% of fetal calf serum, 2.5% of horse serum, 1% of L-glutamine and 1% of penicillin and streptomycin.
For the implantations, the abdomens of the mice were disinfected with an iodinated povidone solution (Betadine®, ASTA Medica, Belgium). A 1 cm incision was made in the upper left quadrant of the abdomen. The end of the tail of the pancreas was seized and the pancreas and also the spleen were gently externalized in a lateral direction so as to be fully exposed. The needle was inserted into the tail of the pancreas and positioned just in the region of the head of the pancreas. 2×10^6 Mia PaCa 2-Luc cells in 50 μl of PBS were slowly injected using a 27-caliber needle. The spleen was then put back into the appropriate position in the abdomen and the skin and the peritoneum were sutured with a 5.0-diameter resorbable thread. […]
The evolution of the tumor volume was monitored by echography. […]

Compound	evolution of the tumor volume (antitumor activity versus control animals) ([1]; MMAE alone 0.3 mg/kg (FIG. 4 legend: 0.5 mg/kg) intravenous once a week for 5 weeks, FIG. 4 panel B)	evolution of the tumor volume ([2]; 0.3 mg/kg intravenous)	visible side effects ([1]; 4 mg/kg intravenous once a week for 5 weeks)	evolution of the tumor volume ([1]; 4 mg/kg intravenous once a week for 5 weeks (D15-D43), echography for 50 days, FIG. 4 panel C)	evolution of the tumor volume ([2]; 2 mg/kg intravenous)	evolution of the tumor volume ([2]; 4 mg/kg intravenous)
CC[C@H](C)[C@@H]([C@@H](CC(=O)N1CCC[C@H]1[C@H](OC)[C@@H](C)C(=O)N[C@H](C)[C@@H](O)c1ccccc1)OC)N(C)C(=O)[C@@H](NC(=O)[C@@H](NC)C(C)C)C(C)C [MMAE, monomethyl auristatin E, reference compound] (H-[NMeV]V[Dil][Dolaproine]-X1)	only a very modest antitumor activity	significant increase in the tumor volume is observed starting from day 35	–	–	–	–
CC[C@@H](C)[C@H]([C@H](CC(=O)N1CCC[C@@H]1[C@@H](OC)[C@H](C)C(=O)N[C@@H](C)[C@H](O)c1ccccc1)OC)N(C)C(=O)[C@H](NC(=O)[C@@H](C(C)C)N(C)C(=O)OC(Cc1cn(CCOCCOCCOCCOCCOCCOCCOCCOCCOCCOCCNC(=O)CCCCCN2C(=O)C=CC2=O)nn1)c1ccc(O[C@@H]2OC(C(=O)O)[C@@H](O)[C@H](O)C2O)c([N+](=O)[O-])c1)C(C)C (stereo partly drawn) [conjugate of formula (III)]	–	–	without visible side effects	total and long-lasting regression of the tumor	the progression of the tumor volume is slower than with the control or the non-functionalized MMAE	total absence of tumor growth
